Assay results as given in patent publication US10322111B2, “Chemokine receptor binding heterocyclic compounds with enhanced efficacy” (Genzyme Corporation, priority 2001, dated 2019).
Like-named read-outs stand apart in the source and are kept apart here.

Tested on: CFU-GM, BFU-E and CFU-GEMM progenitor cells
Settings: 80 μg/kg s.c.; for % CHG, BFU-E, methylcellulose culture / % CHG, CFU-GEMM, methylcellulose culture / % CHG, CFU-GM, methylcellulose culture / mean fold change compared to T 0, BFU-E, methylcellulose culture, MEAN / mean fold change compared to T 0, CFU-GEMM, methylcellulose culture, MEAN / mean fold change compared to T 0, CFU-GM, methylcellulose culture, MEAN: all five donors

For c1cc(CN2CCCNCCNCCCNCC2)ccc1CN1CCCNCCNCCCNCC1 [AMD3100, 1,1′-[1,4-phenylene-bis(methylene)]-bis-1,4,8,11-tetraazacyclotetradecane], the “fold change from T=0, progenitors CFU-GM, methylcellulose culture” value (“fold change from T=0, progenitors CFU-GM” below) (P3, T = 24 h after injection) was 1.43 fold, the “Absolute # of Progenitors per ML, BFU-E” value (P4, T = 1 h after injection) was 672 per ML and the “Absolute # of Progenitors per ML, CFU-GEMM” value (from here on “Absolute # … per ML, CFU-GEMM”) (P4, T = 1 h after injection) was 199 per ML. The “Absolute # of Progenitors per ML, CFU-GM” value (P4, T = 1 h after injection) was 947 per ML, the “fold change from T=0, progenitors BFU-E, methylcellulose culture” value (from here on “fold change from T=0, progenitors BFU-E”) (P4, T = 1 h after injection) was 1.46 fold and the “fold change from T=0, progenitors CFU-GEMM, methylcellulose culture” value (P4, T = 1 h after injection) was 1.96 fold. For the same molecule, the “fold change from T=0, progenitors CFU-GM” value (P4, T = 1 h after injection) was 6.87 fold, the “Absolute # of Progenitors per ML, BFU-E” value (P4, T = 3 h after injection) was 1195 per ML and the “Absolute # … per ML, CFU-GEMM” value (P4, T = 3 h after injection) was 519 per ML. The “Absolute # of Progenitors per ML, CFU-GM” value (P4, T = 3 h after injection) was 2857 per ML, the “fold change from T=0, progenitors BFU-E” value (P4, T = 3 h after injection) was 2.60 fold and the “fold change from T=0, progenitors CFU-GEMM, methylcellulose culture” value (P4, T = 3 h after injection) was 5.14 fold. For the same molecule, the “fold change from T=0, progenitors CFU-GM” value (P4, T = 3 h after injection) was 20.72 fold, the “Absolute # of Progenitors per ML, BFU-E” value (P4, T = 6 h after injection) was 1533 per ML and the “Absolute # … per ML, CFU-GEMM” value (P4, T = 6 h after injection) was 920 per ML. The “Absolute # of Progenitors per ML, CFU-GM” value (P4, T = 6 h after injection) was 3936 per ML, the “fold change from T=0, progenitors BFU-E” value (P4, T = 6 h after injection) was 3.34 fold and the “fold change from T=0, progenitors CFU-GEMM, methylcellulose culture” value (P4, T = 6 h after injection) was 9.10 fold. For the same molecule, the “fold change from T=0, progenitors CFU-GM” value (P4, T = 6 h after injection) was 28.54 fold, the “Absolute # of Progenitors per ML, BFU-E” value (P4, T = 9 h after injection) was 1348 per ML and the “Absolute # … per ML, CFU-GEMM” value (P4, T = 9 h after injection) was 457 per ML. The “Absolute # of Progenitors per ML, CFU-GM” value (P4, T = 9 h after injection) was 1942 per ML, the “fold change from T=0, progenitors BFU-E” value (P4, T = 9 h after injection) was 2.93 fold and the “fold change from T=0, progenitors CFU-GEMM, methylcellulose culture” value (P4, T = 9 h after injection) was 4.52 fold. The “fold change from T=0, progenitors CFU-GM” value (P4, T = 9 h after injection) was 14.08 fold, the “Absolute # of Progenitors per ML, BFU-E” value (P4, T = 24 h after injection) was 362 per ML and the “Absolute # … per ML, CFU-GEMM” value (P4, T = 24 h after injection) was 99 per ML. For the same molecule, the “Absolute # of Progenitors per ML, CFU-GM” value (P4, T = 24 h after injection) was 208 per ML, the “fold change from T=0, progenitors BFU-E” value (P4, T = 24 h after injection) was 0.79 fold and the “fold change from T=0, progenitors CFU-GEMM, methylcellulose culture” value (P4, T = 24 h after injection) was 0.98 fold. The “fold change from T=0, progenitors CFU-GM” value (P4, T = 24 h after injection) was 1.51 fold, the “Absolute # of Progenitors per ML, BFU-E” value (P5, T = 1 h after injection) was 730 per ML and the “Absolute # … per ML, CFU-GEMM” value (P5, T = 1 h after injection) was 169 per ML. The “Absolute # of Progenitors per ML, CFU-GM” value (P5, T = 1 h after injection) was 481 per ML, the “fold change from T=0, progenitors BFU-E” value (P5, T = 1 h after injection) was 2.13 fold and the “fold change from T=0, progenitors CFU-GEMM, methylcellulose culture” value (P5, T = 1 h after injection) was 3.07 fold. For the same molecule, the “fold change from T=0, progenitors CFU-GM” value (P5, T = 1 h after injection) was 2.84 fold, the “Absolute # of Progenitors per ML, BFU-E” value (P5, T = 3 h after injection) was 1288 per ML and the “Absolute # … per ML, CFU-GEMM” value (P5, T = 3 h after injection) was 244 per ML. The “Absolute # of Progenitors per ML, CFU-GM” value (P5, T = 3 h after injection) was 1423 per ML, the “fold change from T=0, progenitors BFU-E” value (P5, T = 3 h after injection) was 3.75 fold and the “fold change from T=0, progenitors CFU-GM” value (P5, T = 3 h after injection) was 8.40 fold. For the same molecule, the “Absolute # of Progenitors per ML, BFU-E” value (P5, T = 6 h after injection) was 3208 per ML, the “Absolute # … per ML, CFU-GEMM” value (P5, T = 6 h after injection) was 987 per ML and the “Absolute # of Progenitors per ML, CFU-GM” value (P5, T = 6 h after injection) was 3454 per ML. For the same molecule, the “fold change from T=0, progenitors BFU-E” value (P5, T = 6 h after injection) was 9.35 fold, the “fold change from T=0, progenitors CFU-GEMM, methylcellulose culture” value (P5, T = 6 h after injection) was 17.92 fold and the “fold change from T=0, progenitors CFU-GM” value (P5, T = 6 h after injection) was 20.39 fold. For the same molecule, the “Absolute # of Progenitors per ML, BFU-E” value (P5, T = 9 h after injection) was 1731 per ML, the “Absolute # … per ML, CFU-GEMM” value (P5, T = 9 h after injection) was 526 per ML and the “Absolute # of Progenitors per ML, CFU-GM” value (P5, T = 9 h after injection) was 1710 per ML. The “fold change from T=0, progenitors BFU-E” value (P5, T = 9 h after injection) was 5.05 fold, the “fold change from T=0, progenitors CFU-GEMM, methylcellulose culture” value (P5, T = 9 h after injection) was 9.55 fold and the “fold change from T=0, progenitors CFU-GM” value (P5, T = 9 h after injection) was 10.09 fold. The “Absolute # of Progenitors per ML, BFU-E” value (P5, T = 24 h after injection) was 495 per ML, the “Absolute # … per ML, CFU-GEMM” value (P5, T = 24 h after injection) was 124 per ML and the “Absolute # of Progenitors per ML, CFU-GM” value (P5, T = 24 h after injection) was 310 per ML. The “fold change from T=0, progenitors BFU-E” value (P5, T = 24 h after injection) was 1.44 fold, the “fold change from T=0, progenitors CFU-GEMM, methylcellulose culture” value (P5, T = 24 h after injection) was 2.25 fold and the “fold change from T=0, progenitors CFU-GM” value (P5, T = 24 h after injection) was 1.83 fold. The “% CHG, BFU-E, methylcellulose culture” value (T = 1 h after injection) was 98.9%, the “% CHG, CFU-GEMM, methylcellulose culture” value (T = 1 h after injection) was 131.8% and the “% CHG, CFU-GM, methylcellulose culture” value (T = 1 h after injection) was 376.7%. The “mean fold change compared to T 0, BFU-E, methylcellulose culture, MEAN” value (“mean fold change compared to T 0, BFU-E” below) (T = 1 h after injection) was 1.99 fold, the “mean fold change compared to T 0, CFU-GEMM, methylcellulose culture, MEAN” value (T = 1 h after injection) was 2.32 fold and the “mean fold change compared to T 0, CFU-GM, methylcellulose culture, MEAN” value (“mean fold change compared to T 0, CFU-GM” for short) (T = 1 h after injection) was 4.77 fold. For the same molecule, the “% CHG, BFU-E, methylcellulose culture” value (T = 3 h after injection) was 221.3%, the “% CHG, CFU-GEMM, methylcellulose culture” value (T = 3 h after injection) was 332.5% and the “% CHG, CFU-GM, methylcellulose culture” value (T = 3 h after injection) was 1266.5%. The “mean fold change compared to T 0, BFU-E” value (T = 3 h after injection) was 3.21 fold, the “mean fold change compared to T 0, CFU-GEMM, methylcellulose culture, MEAN” value (T = 3 h after injection) was 4.33 fold and the “mean fold change compared to T 0, CFU-GM” value (T = 3 h after injection) was 13.66 fold. For the same molecule, the “% CHG, BFU-E, methylcellulose culture” value (T = 6 h after injection) was 500.5%, the “% CHG, CFU-GEMM, methylcellulose culture” value (T = 6 h after injection) was 907.2% and the “% CHG, CFU-GM, methylcellulose culture” value (T = 6 h after injection) was 2070.6%. The “mean fold change compared to T 0, BFU-E” value (T = 6 h after injection) was 6.01 fold, the “mean fold change compared to T 0, CFU-GEMM, methylcellulose culture, MEAN” value (T = 6 h after injection) was 10.07 fold and the “mean fold change compared to T 0, CFU-GM” value (T = 6 h after injection) was 21.71 fold. For the same molecule, the “% CHG, BFU-E, methylcellulose culture” value (T = 9 h after injection) was 334.4%, the “% CHG, CFU-GEMM, methylcellulose culture” value (T = 9 h after injection) was 425.4% and the “% CHG, CFU-GM, methylcellulose culture” value (T = 9 h after injection) was 947.3%. For the same molecule, the “mean fold change compared to T 0, BFU-E” value (T = 9 h after injection) was 4.34 fold, the “mean fold change compared to T 0, CFU-GEMM, methylcellulose culture, MEAN” value (T = 9 h after injection) was 5.25 fold and the “mean fold change compared to T 0, CFU-GM” value (T = 9 h after injection) was 10.47 fold. The “% CHG, BFU-E, methylcellulose culture” value (T = 24 h after injection) was 26.3%, the “% CHG, CFU-GEMM, methylcellulose culture” value (T = 24 h after injection) was 53.2% and the “% CHG, CFU-GM, methylcellulose culture” value (T = 24 h after injection) was 55.5%. The “mean fold change compared to T 0, BFU-E” value (T = 24 h after injection) was 1.26 fold, the “mean fold change compared to T 0, CFU-GEMM, methylcellulose culture, MEAN” value (T = 24 h after injection) was 1.53 fold and the “mean fold change compared to T 0, CFU-GM” value (T = 24 h after injection) was 1.56 fold.
